Data on one compound can be found in US20260325653A1, “HETEROBIFUNCTIONAL SMALL MOLECULES THAT DEUBIQUITINYLATE AND STABILIZE TARGET PROTEINS BY RECRUITING USP7” (ICAHN SCHOOL OF MEDICINE AT MOUNT SINAI, priority 2023, published 2026).

Structures are written as SMILES.

This assay deals with CFTR mRNA. The assay can be described thus: RT-qPCR analysis of CFTR mRNA levels in CFBE41o− 4.7 ΔF508-CFTR cells. It is filed as cell-based, human. Conditions: 10 μM, 24 h. On the technique in general: Quantitative PCR measures a nucleic acid by following its amplification.

Regarding `Cc1ccc(NC(=O)C2(c3ccc4c(c3)OC(F)(F)O4)CC2)nc1-c1cccc(C(=O)NCCCCCCCCCNC(=O)CNCc2ccc(-c3c4ncn(CC5(O)CCN(C(=O)C[C@@H](C)c6ccccc6)CC5)c(=O)c4nn3C)cc2)c1` [MS6869, (R)-3-(6-(1-(2,2-difluorobenzo[d][1,3]dioxol-5-yl)cyclopropane-1-carboxamido)-3-methylpyridin-2-yl)-N-(9-(2-((4-(6-((4-hydroxy-1-(3-phenylbutanoyl)piperidin-4-yl)methyl)-2-methyl-7-oxo-6,7-dihydro-2H-pyrazolo[4,3-d]pyrimidin-3-yl)benzyl)amino)acetamido)nonyl)benzamide], the “mRNA levels of CFTR” value is “do not affect the mRNA levels of CFTR”.
